The text below walks through data of patent US4201771A (priority 1979, dated 1980).

Like-named read-outs stand apart in the source and are kept apart here.

Holding throughout (format): in vivo
In data set [1] the test system is Piricularia oryzae. Conditions: for Rice Blast Lesions per 5th Leaf: Table 2, protectant, untreated control 22; for Rice Blast Lesions/5th Leaf Protectant: Table 1, untreated 52.
In data set [2] the test system is Rice, variety Calusa No. 2. As to the kind of experiment: Phytotoxicity / injury on rice in greenhouse bioassay. The settings on record: Table 2, rice. On the procedure: Host: Rice, variety Calusa No. 2.
Growth Conditions: Rice plants grown to 5 leaf stage in greenhouse on Swiss Farm Potting soil in 7 ounce styrafoam pots. Thinned to 3 seedlings per pot. Day temperature 20°-28° C.; night temperature 15°-20° C. Soluble 20--20--20 fertilizer applied weekly.
Treatment: Test solutions or suspensions of candidate compounds sprayed on both leaf surfaces to run-off with a No. 152 DiVilbiss atomizer at 10 psi. Formulations are prepared by dissolving compounds in methanol-Tween 20 mixture and bringing to volume with deionized water.

The test system of data set [3] is Puccinia recondita f. sp. tritici. The settings on record: 1000 PPM; untreated 42.
Data set [4] deals with Piricularia oryzae. Conditions: 1000 PPM; untreated 69.
For data set [5], the system named is Puccinia recondita f. sp. tritici. Conditions: untreated 27.
The subject of the next data set is Phytophthora infestans. Conditions: untreated 84.

Turning to `CCCCNC(=O)n1c(NC(=O)OC)nc2ccccc21` [Benomyl, [1-[(Butylamino)carbonyl]-1H-benzimidazol-2-yl]carbamic acid methyl ester], the “Rice Blast Lesions per 5th Leaf” value was determined as 4 in the data set on Piricularia oryzae [1] (1 PPM), 4 with Piricularia oryzae [1] (10 PPM) and 0.1 with Piricularia oryzae [1] (100 PPM). For the same compound, the “Remarks (plant injury)” value in data set [2] (1 PPM), in data set [2] (10 PPM) and in data set [2] (100 PPM) was “no injury” in each case.
In the case of `CC1=C(C(=O)Nc2ccccc2)SCCO1` [Carboxin, 5,6Dihydro-2-methyl-N-phenyl-1,4-oxathiin-3-carboxamide], the “Wheat Leaf Rust Pustules/Leaf Systemic” value in data set [3] was 4.
As for `CCOP(=O)(Sc1ccccc1)Sc1ccccc1` [Hinosan, O-Ethyl 5,5-diphenylphosphorodithioate], the “Rice Blast Lesions/5th Leaf Protectant” value in the data set on Piricularia oryzae [1] (1 PPM) was 16; in the data set on Piricularia oryzae [1] (10 PPM) it was 8; in the data set with Piricularia oryzae [1] (100 PPM), below 1. The “Rice Blast Lesions/5th Leaf Systemic” value in the data set with Piricularia oryzae [4] is given as 31.
As for `S=C([S-])NCCNC(=S)[S-].[Mn+2]` [Maneb, [[1,2-Ethanediylbis[carbamodithioato]]-(2-)]manganese], the figures for the “Wheat Leaf Rust Pustules/Leaf Protectant” value in data set [5] (1 PPM), in data set [5] (10 PPM) and in data set [5] (100 PPM) were 20, 12 and 0, respectively. Moreover, the figures for the “Late Blight (Tomato) Phytophthora % Leaf Necrosis Protectant” value in the data set on Phytophthora infestans (1 PPM), in the data set with Phytophthora infestans (10 PPM) and in the data set on Phytophthora infestans (100 PPM) were 77%, 63% and 11%, respectively.
